# Biological target: T1, Recombinant human EP300 containing the bromodomain (EP300-BD (1040-1161)) (Homo sapiens, UniProt Q09472)
# T1 construct: Recombinant human EP300 bromodomain (EP300-BD (1040-1161)); made in house; host or cells: E. coli BL21-CodonPlus (DE3), modified pET vector
# T1 sequence (Q09472 1040-1161): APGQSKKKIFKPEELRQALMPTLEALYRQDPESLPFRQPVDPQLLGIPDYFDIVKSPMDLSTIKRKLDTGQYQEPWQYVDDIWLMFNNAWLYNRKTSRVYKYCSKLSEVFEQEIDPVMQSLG
# Assay: EP300 Alphascreen binding assay
# In short: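 Displacement of a biotinylated acetyl-K56 histone H3 peptide from the N-His bromodomain construct (1040-1161) measured by AlphaScreen proximity, beads at 7.5 μg/ml final, read 60 min after addition. Protein, peptide and compound first incubated 1 h at room temperature, pH 7.5 HEPES buffer; IC50 by four-parameter logistic fit.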
row,SMILES,IC50 [nM]
1,"CCOc1nc(C(=O)O)cc(C)c1-c1cn(-c2ccc(F)cc2F)c2ncc(-c3c(C)noc3C)cc12 [P-0412, 5-(1-(2,4-difluorophenyl)-5-(3,5-dimethylisoxazol-4-yl)-1H-pyrrolo[2,3-b]pyridin-3-yl)-6-ethoxy-4-methylpicolinic acid]",0.1 to 1000
2,"Cc1nnn(C)c1-c1cnc2c(c1)c(-c1ccc(C(=O)O)cc1OC1CC1)cn2C1CCOCC1 [P-0413, 3-cyclopropoxy-4-(5-(1,4-dimethyl-1H-1,2,3-triazol-5-yl)-1-(tetrahydro-2H-pyran-4-yl)-1H-pyrrolo[2,3-b]pyridin-3-yl)benzoic acid]",0.1 to 1000
3,"CCOc1cc(C(=O)O)nc(OCC)c1-c1cn(-c2ccccc2F)c2ncc(-c3c(C)noc3C)cc12 [P-0414, 5-(5-(3,5-dimethylisoxazol-4-yl)-1-(2-fluorophenyl)-1H-pyrrolo[2,3-b]pyridin-3-yl)-4,6-diethoxypicolinic acid]",0.1 to 1000
4,"CCOc1cc(C(=O)O)nc(OCC)c1-c1cn([C@@H](C)c2ccccn2)c2ncc(-c3c(C)noc3C)cc12 [P-0415, (S)-5-(5-(3,5-dimethylisoxazol-4-yl)-1-(1-(pyridin-2-yl)ethyl)-1H-pyrrolo[2,3-b]pyridin-3-yl)-4,6-diethoxypicolinic acid]",0.1 to 1000
5,"CCOc1nc(C(=O)O)c(C)cc1-c1cn(C(C2CC2)C2CC2)c2ncc(-c3c(C)noc3C)cc12 [P-0416, 5-(1-(dicyclopropylmethyl)-5-(3,5-dimethylisoxazol-4-yl)-1H-pyrrolo[2,3-b]pyridin-3-yl)-6-ethoxy-3-methylpicolinic acid]",0.1 to 1000
6,"CCOc1nc(C(=O)O)cc(C)c1-c1cn(C(C2CC2)C2CC2)c2ncc(-c3c(C)noc3C)cc12 [P-0417, 5-(1-(dicyclopropylmethyl)-5-(3,5-dimethylisoxazol-4-yl)-1H-pyrrolo[2,3-b]pyridin-3-yl)-6-ethoxy-4-methylpicolinic acid]",0.1 to 1000
7,"Cc1noc(C)c1-c1cnc2c(c1)c(-c1ccnc(C(=O)O)c1C)cn2C(C1CC1)C1CC1 [P-0418, 4-(1-(dicyclopropylmethyl)-5-(3,5-dimethylisoxazol-4-yl)-1H-pyrrolo[2,3-b]pyridin-3-yl)-3-methylpicolinic acid]",0.1 to 1000
8,"Cc1noc(C)c1-c1cnc2c(c1)c(-c1ccnc(C(=O)O)c1C)cn2C1CCOCC1 [P-0419, 4-(5-(3,5-dimethylisoxazol-4-yl)-1-(tetrahydro-2H-pyran-4-yl)-1H-pyrrolo[2,3-b]pyridin-3-yl)-3-methylpicolinic acid]",0.1 to 1000
9,"CCOc1cc(C(=O)O)nc(OCC)c1-c1cn(C(C2CC2)C2CC2)c2ncc(-c3c(C)noc3C)cc12 [P-0420, 5-(1-(dicyclopropylmethyl)-5-(3,5-dimethylisoxazol-4-yl)-1H-pyrrolo[2,3-b]pyridin-3-yl)-4,6-diethoxypicolinic acid]",0.1 to 1000
10,"CCOc1cc(C(=O)O)nc(OCC)c1-c1cn(-c2ncccc2C#N)c2ncc(-c3c(C)noc3C)cc12 [P-0421, 5-(1-(3-cyanopyridin-2-yl)-5-(3,5-dimethylisoxazol-4-yl)-1H-pyrrolo[2,3-b]pyridin-3-yl)-4,6-diethoxypicolinic acid]",0.1 to 1000
11,"CCOc1cc(C(=O)O)nc(OCC)c1-c1cn(-c2ncccc2C(N)=O)c2ncc(-c3c(C)noc3C)cc12 [P-0422, 5-(1-(3-carbamoylpyridin-2-yl)-5-(3,5-dimethylisoxazol-4-yl)-1H-pyrrolo[2,3-b]pyridin-3-yl)-4,6-diethoxypicolinic acid]",0.1 to 1000
12,"CCOc1cc(C(=O)O)nc(OCC)c1-c1cn(-c2ccc(C#N)cc2F)c2ncc(-c3c(C)noc3C)cc12 [P-0423, 5-(1-(4-cyano-2-fluorophenyl)-5-(3,5-dimethylisoxazol-4-yl)-1H-pyrrolo[2,3-b]pyridin-3-yl)-4,6-diethoxypicolinic acid]",0.1 to 1000
13,"CCOc1cc(C(=O)O)nc(OCC)c1-c1cn(-c2cnc(C3CC3)nc2)c2ncc(-c3c(C)noc3C)cc12 [P-0424, 5-(1-(2-cyclopropylpyrimidin-5-yl)-5-(3,5-dimethylisoxazol-4-yl)-1H-pyrrolo[2,3-b]pyridin-3-yl)-4,6-diethoxypicolinic acid]",0.1 to 1000
14,"CCOc1cc(C(=O)O)nc(OCC)c1-c1cn(C2CCC(F)(F)CC2)c2ncc(-c3c(C)noc3C)cc12 [P-0425, 5-(1-(4,4-difluorocyclohexyl)-5-(3,5-dimethylisoxazol-4-yl)-1H-pyrrolo[2,3-b]pyridin-3-yl)-4,6-diethoxypicolinic acid]",0.1 to 1000
15,"CCOc1cc(C(=O)O)ncc1-c1cn(C(C2CC2)C2CC2)c2ncc(-c3c(C)noc3C)cc12 [P-0427, 5-(1-(dicyclopropylmethyl)-5-(3,5-dimethylisoxazol-4-yl)-1H-pyrrolo[2,3-b]pyridin-3-yl)-4-ethoxypicolinic acid]",0.1 to 1000
16,"CCOc1cc(C(=O)O)ncc1-c1cn(C2CCOCC2)c2ncc(-c3c(C)noc3C)cc12 [P-0428, 5-(5-(3,5-dimethylisoxazol-4-yl)-1-(tetrahydro-2H-pyran-4-yl)-1H-pyrrolo[2,3-b]pyridin-3-yl)-4-ethoxypicolinic acid]",0.1 to 1000
17,"CCOc1cc(C(=O)O)nc(OCC)c1-c1cn(-c2cn(C(F)F)nc2C)c2ncc(-c3c(C)noc3C)cc12 [P-0429, 5-(1-(1-(difluoromethyl)-3-methyl-1H-pyrazol-4-yl)-5-(3,5-dimethylisoxazol-4-yl)-1H-pyrrolo[2,3-b]pyridin-3-yl)-4,6-diethoxypicolinic acid]",0.1 to 1000
18,"CCOc1cc(C(=O)O)nc(OCC)c1-c1cn(-c2cn(CC)nc2C)c2ncc(-c3c(C)noc3C)cc12 [P-0430, 5-(5-(3,5-dimethylisoxazol-4-yl)-1-(1-ethyl-3-methyl-1H-pyrazol-4-yl)-1H-pyrrolo[2,3-b]pyridin-3-yl)-4,6-diethoxypicolinic acid]",0.1 to 1000
19,"CCOc1cc(C(=O)O)nc(OCC)c1-n1cc(-c2ccc(F)cc2F)c2ncc(-c3c(C)noc3C)cc21 [P-0431, 5-(3-(2,4-difluorophenyl)-6-(3,5-dimethylisoxazol-4-yl)-1H-pyrrolo[3,2-b]pyridin-1-yl)-4,6-diethoxypicolinic acid]",0.1 to 1000
20,"CCOc1cc(C(=O)OC)nc(OCC)c1-c1cn(-c2ccc(F)cc2F)c2ncc(-c3c(C)noc3C)cc12 [P-0432, methyl 5-(1-(2,4-difluorophenyl)-5-(3,5-dimethylisoxazol-4-yl)-1H-pyrrolo[2,3-b]pyridin-3-yl)-4,6-diethoxypicolinate]",0.1 to 1000
21,"CCOc1cc(C(=O)O)nc(OCC)c1-c1cn(C2CCN(C(=O)OC(C)(C)C)CC2)c2ncc(-c3c(C)noc3C)cc12 [P-0433, 5-(1-(1-(tert-butoxycarbonyl)piperidin-4-yl)-5-(3,5-dimethylisoxazol-4-yl)-1H-pyrrolo[2,3-b]pyridin-3-yl)-4,6-diethoxypicolinic acid]",0.1 to 1000
22,"Cc1noc(C)c1-c1cnc2c(c1)c(C1CCC(C(=O)O)CC1)cn2-c1ccc(F)cc1F (centres unmarked) [P-0434, 4-(1-(2,4-difluorophenyl)-5-(3,5-dimethylisoxazol-4-yl)-1H-pyrrolo[2,3-b]pyridin-3-yl)cyclohexane-1-carboxylic acid]",0.1 to 1000
23,"CCOc1cc(C(=O)O)nc(OCC)c1-c1cn(C2CCN(S(C)(=O)=O)CC2)c2ncc(-c3c(C)noc3C)cc12 [P-0435, 5-(5-(3,5-dimethylisoxazol-4-yl)-1-(1-(methylsulfonyl)piperidin-4-yl)-1H-pyrrolo[2,3-b]pyridin-3-yl)-4,6-diethoxypicolinic acid]",0.1 to 1000

# Source: US11446287B2, “Compounds and methods for EP300 or CBP modulation and indications therefor” (Opna Immuno-Oncology SA, priority 2019, dated 2022)
